Source: the NIST ThermoML archive (doi:10.1021/acs.jced.6b00856)
Numbers after ± are expanded uncertainties.

Experiment: mn = molality of the nth substance listed, in mol/kg
Conditions: 101.3 kPa, Liquid; for viscosity: Capillary tube (Ostwald / Ubbelohde) method; for mass density: Pycnometric method

C1CNCCN1 [piperazine] + O
Conditions	mass density, 303.15 K [kg/m3]	mass density, 313.15 K [kg/m3]	mass density, 323.15 K [kg/m3]	viscosity, 303.15 K [mPa·s]	viscosity, 313.15 K [mPa·s]	viscosity, 323.15 K [mPa·s]
m1 = 0.66	997.55 ± 0.27	994.45 ± 0.29	989.89 ± 0.31	0.987 ± 0.04	0.789 ± 0.039	0.641 ± 0.039
m1 = 1.1	999.58 ± 0.27	995.73 ± 0.29	991.34 ± 0.31	1.169 ± 0.04	0.916 ± 0.04	0.747 ± 0.039
m1 = 1.7	1002.4 ± 0.3	998.08 ± 0.3	993.64 ± 0.32	1.456 ± 0.04	1.124 ± 0.04	0.893 ± 0.039
